Reference: patent US9512167B2, “Optimized synthesis of pure, non-polymorphic, crystalline bile acids with defined particle size” (Dr. Falk Pharma GmbH, priority 2010, dated 2016)
Converted amounts (≈) assume the structure as drawn. Blank lines part the entries; values can stand above or below the compound they belong to.

What was measured:
Assay type in all cases: physicochemical
[1] = Qualitative solubility determination of Nor-UDCA with 20 solvents; settings: thermodynamic from solid
Procedure: (§1) The polymorph screening study was carried out in two phases. In Phase 1, the synthesized Nor-UDCA, designated Form A, was characterised by XRPD, digital imaging, thermal analysis (DSC and TGMS). The purity of the material was checked by HPLC/RI. A qualitative solubility determination with 20 solvents was carried out in order to fit the data for the selection of the crystallization solvents to be employed in the polymorph screen. Additionally, the solids recovered by evaporation of solutions used in the solubility experiments were analyzed by XRPD and digital imaging to obtain information on the potential form formation of new forms of Nor-UDCA (see Table 2). Grinding tests were conducted in order to support the definition of the experimental space for this crystallization mode. Amorphous material to be used as starting material was intentionally produced by freeze-drying from 1,4-dioxane/water (95/5%) solution and by grinding (ball-milling) for “cooling/evaporation and vapour diffusion into solids experiments”. In Phase 2, 217 experiments divided across different crystallization modes were performed. The applied crystallization modes were: • Combined cooling/evaporative crystallization experiments starting with amorphous material • Crystallization with forward anti-solvent addition • Slurry experiments at two temperatures • Vapour diffusion into solutions • Vapour diffusion onto amorphous solids • Crystallization by grinding with 24 solvents and one dry.

[2] = Polymorph screen: relative stability of forms by XRPD re-analysis after storage; settings: for Stability by XRPD (form found on XRPD re-analysis after storage): storage at ambient conditions
Procedure: as §1
Upon completion of the experiments, XRPD and digital images analyses were performed on all crystallized solids.

[3] = Particle size determination by laser diffraction; settings: dry method, Malvern
From the text: The particle size distribution can be determined as described herein in Example 3 and/or according the European Pharmacopeia (Ph. Eur.), edition 6.8. section 2.9.31, preferably with a Mastersizer 2000 by Malvern instruments. The evaluation is typically carried out by the Fraunhofer model.
The precipitation of the free acid leads to Nor-UDCA particles of a consistent and defined size distribution. Micronization by milling in order to control the crystal size of Nor-UDCA can be avoided.

[4] = Particle size analysis of crystals by microscopy (Reference Example)
Procedure: Various properties of Nor-UDCA synthesized according to Schteingart and Hofmann (1988) Journal of Lipid Research Vol. 29(10), […] were investigated.
The particle size of the crystals obtained was analyzed by microscopy. […] This particle size distribution is not suitable for the intended pharmaceutical preparation. Milling/micronization is not desired as this would result in a reduction of the polymorphic purity and/or of the thermodynamic stability of the Nor-UDCA.

solubility ([1]; dichloromethane, organic solvent or mixture, solvent Dichlormethane): < 13 mg/mL | solubility ([1]; organic solvent or mixture, solvent 1,2-Dimethoxyethane): < 14 mg/mL | solubility ([1]; organic solvent or mixture, solvent 1,2-Ethanediol): < 14 mg/mL | solubility ([1]; organic solvent or mixture, solvent 1,4-Dioxane): 21 mg/mL (≈ 55.5 mM) | solubility ([1]; organic solvent or mixture, solvent 2,2,2-Trifluoroethanol): 21 mg/mL (≈ 55.5 mM) | solubility ([1]; organic solvent or mixture, solvent 2-Butanone): < 14 mg/mL | solubility ([1]; organic solvent or mixture, solvent Acetone): < 14 mg/mL | solubility ([1]; organic solvent or mixture, solvent Acetonitrile): < 13 mg/mL | solubility ([1]; organic solvent or mixture, solvent Chloroform): < 14 mg/mL | solubility ([1]; organic solvent or mixture, solvent Cyclohexane): < 14 mg/mL | solubility ([1]; organic solvent or mixture, solvent Dimethylsulfoxide): 207 mg/mL (≈ 547 mM) | solubility ([1]; organic solvent or mixture, solvent Methanol): 70 mg/mL (≈ 185 mM) | solubility ([1]; organic solvent or mixture, solvent N-Methyl-2-pyrrolidone): 404 mg/mL (≈ 1070 mM) | solubility ([1]; organic solvent or mixture, solvent Nitrobenzene): < 13 mg/mL | solubility ([1]; organic solvent or mixture, solvent Nitromethane): < 13 mg/mL | solubility ([1]; organic solvent or mixture, solvent Pentane): < 13 mg/mL | solubility ([1]; organic solvent or mixture, solvent Toluene): < 12 mg/mL | solubility ([1]; tert-butyl methyl ether, organic solvent or mixture, solvent Tert-butylmethylether): < 13 mg/mL | solubility ([1]; tetrahydrofuran, organic solvent or mixture, solvent Tetrhydrofurane): 41 mg/mL (≈ 108 mM) | solubility ([1]; solvent Water): < 12 mg/mL | Thermodynamic stability of the crystalline form ([2]; polymorph screening study): thermodynamically stable | Stability by XRPD (form found on XRPD re-analysis after storage) [2]: Form A | Particle size D(v, 0.5) ([3]; listed as Batch 40019721): 6.4 μm | Particle size D(v, 0.5) ([3]; listed as Batch 40019898): 5.4 μm | Particle size D(v, 0.5) ([3]; listed as Batch 40019902): 6.7 μm
SMILES: CC(CC(=O)O)[C@H]1CCC2[C@H]3C(CC[C@@]21C)[C@@]1(C)CCC(O)C[C@H]1C[C@@H]3O (stereo partly drawn) [Nor-UDCA, 3α,7β-dihydroxy-24-nor-5β-cholan-23oic acid]

SMILES: C[C@H](CC(=O)O)[C@H]1CC[C@H]2[C@@H]3[C@@H](O)C[C@@H]4C[C@H](O)CC[C@]4(C)[C@H]3CC[C@]12C [Form C2]
Stability by XRPD (form found on XRPD re-analysis after storage) [2]: Form A

SMILES: C[C@H](CC(=O)O)[C@H]1CC[C@H]2[C@@H]3[C@@H](O)C[C@@H]4C[C@H](O)CC[C@]4(C)[C@H]3CC[C@]12C
Median particle size (50% of the crystals this size or less) [4]: 13.37 μm | Particle size that 60% of the crystals have or less [4]: 15.64 μm | Particle size that 95% of the particles have or less [4]: 46.64 μm | Share of particles with a particle size of 10 μm or less [4]: Less than 30%

SMILES: C[C@H](CC(=O)O)[C@H]1CC[C@H]2[C@@H]3[C@@H](O)C[C@@H]4C[C@H](O)CC[C@]4(C)[C@H]3CC[C@]12C [Form B]
Time to conversion to Form A (XRPD re-analysis) ([2]; stored at ambient conditions in well and experimental vial): ≤ 10 days
